Test results from US12533373B2, “β-glucan composition and use therefor” (Qingdao Conson Pharmaceutical Co., Ltd., priority 2019, dated 2026).
Several values for one entry are separate records, joined by “and”; a condition that tells them apart may be missing. Equal values may be shown once.

Legend:
[1] = tested on: S180 mouse fibrosarcoma cells; assay: murine S180 sarcoma residual carcinoma model; type: in vivo, Kunming mice; details: 5-FU 18 mg/kg
Procedure: S180 mouse fibrosarcoma cells were amplified by culturing in DMEM high sugar medium containing 10% FBS. The cells were ready for the next step when entering the logarithmic growth phase. The cells at logarithmic growth phase were collected by centrifugation and counted. The cell concentration was adjusted, and inoculated at 0.2 ml/mouse into the peritoneal cavity of Kunming mice as the first-generation breeder mouse. After rearing for one week, the ascites in peritoneal cavity of the first-generation breeder mouse were taken for centrifugation and count, the cell concentration was adjusted, and inoculated at 0.2 ml/mouse into the peritoneal cavity of Kunming mice as the second-generation breeder mouse, and after rearing for another week, the ascites in peritoneal cavity of the second-generation breeder mouse were taken for centrifugation and count, the cell concentration was adjusted, and inoculated at 0.2 ml/mouse into subcutaneous back of Kunming mice. The whole inoculation process was carried out aseptically in the ultra-clean workstation. After inoculation, the growth of mice was observed, and the mice were screened according to their growth state, and after screening, the mice were grouped randomly and administered.

[2] = tested on: SW-480 human colon cancer transplanted tumors; assay: nude mice transplanted tumor model, SW-480; type: in vivo, BALB/c nude mice; details: 5-FU 18 mg/kg, tail vein, twice a week
Procedure: The […] was resuscitated with liquid nitrogen and cultured in 5A medium containing 10% fetal bovine serum; the cells were expanded and cultured in culture flasks and collected by digestion after reaching the required cells number; the cells were diluted using 5A medium containing 10% fetal bovine serum into suspensions of 250 million cell/ml which was inoculated subcutaneously to the axilla of the right forelimb of each mouse with 0.2 ml per mouse after routine sterilization. When growing to tumors to about 1 g of tissue mass, the animal was sacrificed and the tumor was cut into 2-3 cubic millimeter pieces and implanted subcutaneously into nude mice for passaging by catheter method, and two consecutive passages were performed. HT-29, SW-480, DLD-1 and RKO cell lines listed in the table were modeled and experimented using the same method. Waiting for the tumors of the passaged tumor-bearing nude mice grown to about 1 g, the tumors were transplanted for modeling via the method described above, and the animals were randomly grouped and administration was started on the next day after transplantation.
The animals were grouped using the random grouping method, 8 animals each group.
The route of administration is via tail vein injection, and the amount of administration for each animal was determined based on the latest body weight prior to administration. […]

[3] = tested on: Mouse lung cancer Lewis cells; assay: mouse Lewis lung cancer residual cancer model; type: in vivo, C57BL/6 mice; details: 5-FU 18 mg/kg
Procedure: Mouse lung cancer Lewis cells were amplified by culturing in DMEM high sugar medium containing 10% FBS. The cells were ready for the next step when entering the logarithmic growth phase. The cells at logarithmic growth phase were collected by centrifugation and counted. The cell concentration was adjusted and inoculated subcutaneously at 0.2 ml/mouse in the right axilla of C57BL/6 mice as breeder mouse. After grew to over 1000 mm^3, the tumors were removed aseptically, weighed, diluted by adding sodium chloride injection with mass to volume ratio of 1:4 and […], after conventional sterilization, inoculated subcutaneously to the axilla of the right forelimb of each mouse with 0.2 ml per mouse for passaging. After grew to over 1000 mm^3, the second generation tumors were taken aseptically, weighed, diluted by adding sodium chloride injection with mass to volume ratio of 1:4 and ground, and then inoculated subcutaneously to the back of mice at 0.2 ml per mouse after routine sterilization. The growths of mice were observed after inoculation, and screened according to the growth state of mice, and after screening, the mice were grouped randomly and administered.

## O=c1[nH]cc(F)c(=O)[nH]1 [Example 5-FU, Fluorouracil]
[1]
  Inhibition rate: 85.30% and 66.85%
[2]
  Inhibition rate: 57.91%
  Tumor weight: 0.43 g
[3]
  Tumor weight: 1.29 g and 1.24 g
